For 21 compounds, IC50 results are on record in US8518958B2, “Pyrido [2,3-D] pyrimidines and their use as kinase inhibitors” (Forma Therapeutics, Inc., priority 2006, dated 2013).

SMILES strings stand for the structures.

Experiment [1] addresses C-Raf Raf-1 (truncated), active (Homo sapiens, UniProt P04049, Y340D/Y341D). The experiment is described as follows: C-Raf kinase inhibition (MAPH assay / IMAP assay). Particulars: read-out: Biochemical IC50 C-Raf. The text has this: We characterized the in vitro inhibitory activity against protein kinases of compounds of the present invention by determining their IC50 values (see Table 2).
Kinase: C-Raf Raf-1 (truncated), active (Upstate; cat. no. 14-352)
Reaction Temperature: room temperature
Assay Plate: 96 well U bottom plate (Greiner, 650161)
MultiScreen-PH Plate: 96 well MAPH Filter Plates (Millipore, MAPHNOB50)
Filter Washing Solution: 0.75% H3PO4
Scintillation Liquid: Supermix Liquid Scintillator (PerkinElmer, 1200-439)
Negative Control (C−): 100 mM EDTA, no inhibitor
Positive Control (C+): no inhibitor
Reaction Buffer (Final Concentration):
Final Assay Concentrations:
Kinase: Use kinase conc. yielding 10% ATP turnover as determined in titration experiment.
Adenosine 5′-[γ-^33P]triphosphate: 12.5 μCi/ml (Amersham Biosciences, BF1000)
Substrate: Myelin Basic Protein 57.8 μM (Invitrogen, 13228-010)
Pipetting Sequence: • 1) Add 10 μl 4-fold concentrated substrate+4-fold concentrated ATP in 3-fold concentrated reaction buffer to each well of assay plate • 2) Add 10 μl […] concentrated inhibitor in 4% DMSO in H2O to each well except to C− and C+ wells (starting point: final inhibitor concentration 10 μM; IC50 determination based on dilution series) • 3) Add 10 μl 4% DMSO in H2O to C− and C+ wells • 4) Add 10 μl 500 mM EDTA in H2O to C− wells • 5) Add 10 μl 50 μCi/ml adenosine 5′-[γ-^33P]triphosphate in H2O to each well • 6) Add 10 μl […] concentrated kinase in Reaction Buffer to each well • 7) Incubate 1 hr at room temperature • 8) Add 10 μl 50 mM EDTA in H2O to each well except to C− wells • 9) Prepare MAPH plates by adding 200 μl 0.75% H3PO4 to each well • 10) Exhaust 0.75% H3PO4 using Millipore vacuum station • 11) Add 60 μl 0.75% H3PO4 to each well of MAPH filter plate • 12) Transfer 30 μl sample per well from assay plate to corresponding well of MAPH filter plate • 13) Incubate 30 min at room temperature • 14) Wash each well of MAPH filter plates 3× with 200 μl 0.75% H3PO4 using Millipore vacuum station • 15) Add 20 μl scintillation liquid to each well of MAPH filter plate • 16) Seal MAPH filter plate • 17) Store MAPH filter plate 30 min in darkness • 18) Quantify radioactivity using scintillation counter (MicroBeta, Perkin-Elmer)
Reaction Volume: 8.0108 μl
IMAP Incubation Time: 60 min
Assay Plate: 384 well U bottom, PP, black, low volume (Corning, 3676)
Compound Plate: 384 well U bottom, PS (Falcon, 3995)
IMAP Binding Buffer A: Molecular Devices, R7282
IMAP Binding Buffer B: Molecular Devices, R7283
IMAP Binding Reagent: Molecular Devices, R7207
Negative Control (C−): no kinase, no inhibitor
Reation buffer: 20 mM Hepes, pH 7.5 • 1 mM DTT • 10 mM MnCl2 • 0.01% Brij35
Kinase: Kinase conc. yielding 50% substrate turnover as determined in titration experiment • c-Raf (Upstate 14-352)
Substrate: 5F1-SGQLIDSMANSFV-NH2 400 nM (jpt Peptide Technologies GmbH, Berlin, Germany)
IMAP Binding Solution: 75% IMAP Binding Buffer A • 25% IMAP Binding Buffer B • IMAP Binding Reagent 1:800
Pipetting Sequence: • 1) Add 6 μl 1.33-fold concentrated substrate+1.33-fold concentrated ATP in 1-fold concentrated reaction buffer to each well of assay plate • 2) Add 10.8 nl 740-fold concentrated inhibitor in 100% DMSO to each well except to C− and C+ wells using pintool (CyBio, Jena, Germany) (starting point: final inhibitor concentration 10 μM; IC50 determination based on dilution series) • 3) Add 10.8 nl 100% DMSO to C− and C+ wells using pintool • 4) Add 2 μl reaction buffer to C− wells • 5) Add 2 μl 4-fold concentrated kinase in reaction buffer to each well except C− wells • 6) Incubate according to reaction time at room temperature • 7) Add 15 μl IMAP binding solution to each well • 8) Incubate according to IMAP incubation time at room temperature • 9) Measure fluorescence polarization (Analyst GT, Molecular Devices)

The subject of the next experiment is HT-29 tumor cells. The experiment is described as follows: Anti-proliferative activity, SRB assay. It counts as cell-based, human. Conditions: Homo sapiens, HT-29, 72 h, 72 hours exposure, read-out: CELLULAR IC50 HT-29. Put shortly: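 Cells at 3,000-15,000/well, plated 24 h before compound, exposed to a concentration range for 72 hours. Proliferation measured by SRB staining after cold TCA fixation, absorbance at OD570; IC50 estimated from % inhibition versus DMSO-treated cells.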
For orientation: Sulforhodamine B stains cellular protein and so reports cell mass.

The target in a further experiment is B-Raf delta1-415 (Homo sapiens, UniProt P15056). The experiment is described as follows: B-Raf kinase inhibition (MAPH filter plate, 33P-ATP, MEK1 substrate). Particulars: read-out: Biochemical IC50 B-Raf. An outline of the steps:
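Radiometric filter-binding assay with B-Raf delta1-415 at a level giving 50% turnover, MEK1 substrate and 33P-ATP (12.5 μCi/ml) in 20 mM Mops pH 7.0 with Mg/Mn, 1 h at room temperature. Inhibitor dilution series from 10 μM; EDTA-stopped reactions captured on phosphocellulose filters, counted by scintillation for IC50.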

Sequence of B-Raf delta1-415 (P15056 416-766): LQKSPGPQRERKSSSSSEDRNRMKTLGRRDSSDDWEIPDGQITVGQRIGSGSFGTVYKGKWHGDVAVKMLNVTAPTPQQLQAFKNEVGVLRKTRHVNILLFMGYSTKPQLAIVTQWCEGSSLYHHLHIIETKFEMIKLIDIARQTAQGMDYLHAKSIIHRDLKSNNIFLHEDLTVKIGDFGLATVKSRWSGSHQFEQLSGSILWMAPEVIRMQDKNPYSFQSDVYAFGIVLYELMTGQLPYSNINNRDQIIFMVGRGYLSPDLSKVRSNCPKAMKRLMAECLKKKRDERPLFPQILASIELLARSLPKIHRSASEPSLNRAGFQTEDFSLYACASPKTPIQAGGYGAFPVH
Sequence of C-Raf Raf-1 (truncated), active (P04049 306-648 Y340D/Y341D): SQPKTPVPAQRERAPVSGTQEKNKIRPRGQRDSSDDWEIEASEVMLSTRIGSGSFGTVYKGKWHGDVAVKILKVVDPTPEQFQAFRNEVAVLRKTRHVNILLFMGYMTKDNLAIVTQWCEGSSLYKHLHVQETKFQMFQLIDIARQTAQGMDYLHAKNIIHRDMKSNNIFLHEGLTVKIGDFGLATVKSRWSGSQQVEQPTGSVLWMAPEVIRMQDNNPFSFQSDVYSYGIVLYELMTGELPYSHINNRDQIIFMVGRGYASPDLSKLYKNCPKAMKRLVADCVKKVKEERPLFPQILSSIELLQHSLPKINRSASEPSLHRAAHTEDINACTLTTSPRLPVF

The IC50 is the concentration that gives 50% inhibition. Take `COn1c(=O)c(-c2c(C)cccc2C)cc2cnc(Nc3cccc(S(N)(=O)=O)c3)nc21` [Compound 72, 6-(2,6-Dimethylphenyl)-8-methoxy-2-(3-sulfamoylphenylamino)-pyrido[2,3-d]pyrimidin-7-one]: the IC50 in experiment [1] is under 100 nM; in the experiment with HT-29 tumor cells, under 1000 nM.
For `CO/N=C/c1ccc(Nc2ncc3cc(-c4c(Cl)cccc4Cl)c(=O)n(OC)c3n2)cc1` [Compound 209, 2-(4-(methoximino)methylphenyl)-amino-6-(2,6-dichlorophenyl)-8-methoxy-pyrido[2,3-d]pyrimidin-7-one], the IC50 on B-Raf delta1-415 and in the experiment on HT-29 tumor cells was under 1000 nM in each case.
With `COn1c(=O)c(-c2c(Cl)cccc2Cl)cc2cnc(Nc3ccc(/C=N/O)cc3)nc21` [Compound 210, 2-(4-(hydroximino)methylphenyl)-amino-6-(2,6-dichlorophenyl)-8-methoxy-pyrido[2,3-d]pyrimidin-7-one], the values for the IC50 on B-Raf delta1-415 and in the experiment on HT-29 tumor cells were under 500 nM and under 1000 nM, respectively.
For `COn1c(=O)c(-c2c(F)cccc2Cl)cc2cnc(Nc3ccc(N4CCNCC4)c(F)c3)nc21` [Compound 211, 6-(2-Chloro-6-fluorophenyl)-2-(3-fluoro-4-piperazinophenyl)-amino-8-methoxy-pyrido[2,3-d]pyrimidin-7-one] the same measures were under 100 nM and under 1000 nM.
For the compound `CN1CC[C@H](COn2c(=O)c(-c3c(F)cccc3Cl)cc3cnc(Nc4ccc(N5CCOCC5)cc4)nc32)C1` [Compound 212, 6-(2-Chloro-6-fluorophenyl)-8-(3-(S)-1-methyl-pyrrolidin-3-yl)methoxy-2-(4-morpholinophenyl)-amino-pyrido[2,3-d]pyrimidin-7-one], the results for the IC50 at B-Raf delta1-415 and with HT-29 tumor cells were under 100 nM and under 1000 nM, respectively.
Take `COn1c(=O)c(-c2c(F)cccc2Cl)cc2cnc(Nc3ccc(N4CCNCC4)c(C#N)c3)nc21` [Compound 213, 6-(2-Chloro-6-fluorophenyl)-8-methoxy-2-(3-cyano-4-piperazinophenyl)-amino-pyrido[2,3-d]pyrimidin-7-one]: the results for the half-inhibitory concentration (IC50) at B-Raf delta1-415 and with HT-29 tumor cells were under 100 nM and under 1000 nM, respectively.
`COc1cc(Nc2ncc3cc(-c4c(F)cccc4Cl)c(=O)n(OC)c3n2)ccc1N1CCNCC1` [Compound 214, 6-(2-Chloro-6-fluorophenyl)-8-methoxy-2-(3-methoxy-4-piperazinophenyl)-amino-pyrido[2,3-d]pyrimidin-7-one]: the results for the IC50 at B-Raf delta1-415 and in the experiment with HT-29 tumor cells were under 100 nM and under 1000 nM, respectively.
In the case of `O=c1c(-c2c(F)cccc2Cl)cc2cnc(Nc3ccc(N4CCNCC4)cc3)nc2n1OCC1CCOCC1` [Compound 215], the IC50 on B-Raf delta1-415 was under 100 nM; with HT-29 tumor cells, under 1000 nM.
For the compound `COCCOn1c(=O)c(-c2c(F)cccc2Cl)cc2cnc(Nc3ccc(N4CCNCC4)cc3)nc21` [Compound 216, 6-(2-Chloro-6-fluorophenyl)-8-(2-methoxyethyl)oxy-2-(4-piperazinophenyl)-amino-pyrido[2,3-d]pyrimidin-7-one], the IC50 was under 500 nM at B-Raf delta1-415 and under 1000 nM in the experiment with HT-29 tumor cells.
For the compound `CCCN1CCN(c2ccc(Nc3ncc4cc(-c5c(F)cccc5Cl)c(=O)n(OC)c4n3)cc2)CC1` [Compound 217, 6-(2-Chloro-6-fluorophenyl)-8-methoxy-2-(4-(4-propylpiperazino)phenyl)-amino-pyrido[2,3-d]pyrimidin-7-one], the IC50 was under 500 nM on B-Raf delta1-415 and under 1000 nM with HT-29 tumor cells.
`COn1c(=O)c(-c2c(F)cccc2Cl)cc2cnc(Nc3ccc(N4CCNCC4)c(CO)c3)nc21` [Compound 218, 6-(2-Chloro-6-fluorophenyl)-8-methoxy-2-(3-hydroxymethyl-4-piperazinophenyl)-amino-pyrido[2,3-d]pyrimidin-7-one]: the IC50 was under 100 nM at B-Raf delta1-415 and under 1000 nM in the experiment on HT-29 tumor cells.
Consider `COn1c(=O)c(-c2c(Cl)cccc2Cl)cc2cnc(Nc3cccc(O)c3)nc21` [Compound 219, 6-(2,6-Dichlorophenyl)-2-(3-hydroxyphenyl)-amino-8-methoxy-pyrido[2,3-d]pyrimidin-7-one], for which the IC50 was under 500 nM on B-Raf delta1-415 and under 10000 nM in the experiment with HT-29 tumor cells.
Consider `COn1c(=O)c(-c2c(F)cccc2Cl)cc2cnc(Nc3cc(C(=O)N(C)CCOC(=O)c4cccnc4)n(C)c3)nc21` [Compound 220], for which the IC50 on B-Raf delta1-415 was under 500 nM; with HT-29 tumor cells, under 1000 nM.
Consider `COn1c(=O)c(-c2c(Cl)cccc2Cl)cc2cnc(Nc3ccc(N4CCCN(C)CC4)cc3)nc21` [Compound 221, 6-(2,6-Dichlorophenyl)-8-methoxy-2-(4-(4-methyl-1,4-diazacycloheptyl)phenyl-)-amino-pyrido[2,3-d]pyrimidin-7-one], for which the IC50 was under 100 nM on B-Raf delta1-415 and under 1000 nM in the experiment with HT-29 tumor cells.
For `COn1c(=O)c(-c2c(F)cccc2Cl)cc2cnc(Nc3ccc(C4CCNCC4)cc3)nc21` [Compound 222, 6-(2-Chloro-6-fluorophenyl)-8-methoxy-2-(4-(piperidin-4-yl)phenyl)-amino-pyrido[2,3-d]pyrimidin-7-one], the IC50 was under 100 nM on B-Raf delta1-415 and under 1000 nM in the experiment with HT-29 tumor cells.
`COn1c(=O)c(-c2c(F)cccc2Cl)cc2cnc(Nc3ccc(N4CCN(S(C)(=O)=O)CC4)cc3)nc21` [Compound 223, 6-(2-Chloro-6-fluorophenyl)-8-methoxy-2-(4-(4-methylsulfonylpiperazino)phenyl)-amino-pyrido[2,3-d]pyrimidin-7-one]: the values for the IC50 at B-Raf delta1-415 and in the experiment with HT-29 tumor cells were under 100 nM and under 1000 nM, respectively.
On the same counts, the results for `O=c1ccc2cnc(Nc3ccccc3)nc2n1OC1CCCC1` [Compound 225] are over 1000 nM and under 10000 nM.
On the same counts, the results for `O=c1ccc2cnc(Nc3ccc(N4CCOCC4)cc3)nc2n1OC1CCCC1` [Compound 226] are over 1000 nM and under 10000 nM.
For `Nc1ncc2cc(-c3c(Cl)cccc3Cl)c(=O)n(OCc3cccnc3)c2n1` [Compound 232, 2-Amino-6-(2,6-dichlorophenyl)-8-(pyrid-3-yl)methoxy-pyrido[2,3-d]pyrimidin-7-one] the same measures were under 1000 nM and under 10000 nM.
Consider `CC(C)(C)On1c(=O)c(Br)cc2cnc(Nc3ccccc3)nc21` [Compound 239], for which the IC50 on B-Raf delta1-415 and with HT-29 tumor cells was over 10000 nM in each case.
For the compound `O=c1c(-c2ccccc2Cl)cc2cnc(Nc3ccccc3)nc2n1O` [Compound 240, 6-(2-Chlorophenyl)-8-hydroxy-2-phenylamino-pyrido[2,3-d]pyrimidin-7-one], the IC50 is over 1000 nM at B-Raf delta1-415 and under 10000 nM with HT-29 tumor cells.
